Reference: US11236049B2, “Amorphous and crystalline forms of IDO inhibitors” (BRISTOL-MYERS SQUIBB COMPANY, priority 2017, dated 2022)
Like-named read-outs stand apart in the source and are kept apart here.

Tests used:
[1] = type: physicochemical
From the text: There was no evidence of form change, dehydration, or amorphous formation after 8 weeks. There was no change in TGA at 8 weeks in all samples.

[2] = for AUC (Mean) / Dissolution Rate (Mean): 150 mg in 250 mL (0.60 mg/mL API equivalent), 37° C.
Protocol: Microdissolution Microdissolution experiments were conducted in a pIon μDiss Profiler microdissolution instrument (pION μDiss Profiler) with a fiber optic UV monitoring system, as follows: Probes: 2.5 mm probes (5 mm path length) Volume: 15 ml Stirring: 150 rpm Temperature: 37° C. […] The target doses were 150 mg in 250 mL (0.60 mg/mL API equivalent) in FaSSIF (pH 6.5) and FeSSIF (pH 5).

[3] = type: physicochemical; remark: listed apart in the source
[4] = pH solubility of Compound 1 MSA Salt Form 1; type: physicochemical; settings: 22 °C, aqueous buffer, thermodynamic from solid; from pH solubility profile of MSA Salt Form 1; read-out: Solubility for the free-base
Protocol: Measurements were taken using an Orion ATI Model 370 pH meter. […] To each vial was added 5 mL of various aqueous acidic and basic solutions. Each vial was stoppered and vortexed and sonicated to mix well. The pH of each sample was recorded. […] After 24 hours of stirring, the pH of each sample (as a suspension) was recorded. Suspensions were filtered with 0.2 micron Acrodisc syringe filters. The clear filtrates were collected and vortexed to mix well pH of each filtrated was recorded. pH of suspension and filtrate were nearly identical. A 1.0 mL aliquot of each of the filtrates 25-fold using 50% acetonitrile/50% Milli-Q water, q.w. each flask to 25 mL. […] Samples were assayed using the following HPLC method: Column: […] Mobile phase Solvent A: Water w/0.05% TFA • Solvent B: Acetonitrile w/0.05% TFA […] Column temperature: Ambient RT Detector Wavelength: 250 nm […] Working Concentration: […] Added 20 mL of 100% acetonitrile to the vial. Stoppered, vortexed, and sonicated the vial. […] Transferred the suspension to a 250 mL glass volumetric flask, and washed out the glass vial with 4×20 mL 50% acetonitrile/50% Milli-Q water, transferring each wash into the volumetric flask. All solids dissolved. Q.S. the volumetric flask to 250 mL final volume using 50% acetonitrile/50% Milli Q water, shake to give standard solution at 101.5 mcg/mL.

[5] = Solid state stability of Compound 1 free base Form 4; type: physicochemical
From the text: The results of those experiments are in the table, below.

[6] = 25° C./60% relative humidity, 4-week
[7] = 40° C./75% relative humidity (closed), 4-week
[8] = 40° C./75% relative humidity (open), 4-week
[9] = High intensity light (HIL), 4-week
[10] = solid state stress conditions tested

For C[C@@H](C(=O)Nc1ccc(Cl)cc1)C1CCC(c2ccnc3ccc(F)cc23)CC1.O (stereo partly drawn) [Compound 1 Free Base monohydrate Form 2, (R)-N-(4-chlorophenyl)-2-((1S,4S)-4-(6-fluoroquinolin-4-yl)cyclohexyl)propanamide monohydrate], the time chemically stable [1] was “at least 13.5 weeks”, the Area % [1, 6] was 99.90% Area % and the Area % ([1]; 25° C./60% relative humidity, 8-week) was 99.90% Area %. The Area % ([1]; 25° C./60% relative humidity, 13.5 week) was 99.73% Area %, the Area % [1, 7] was 99.90% Area % and the Area % ([1]; 40° C./75% relative humidity (closed), 8-week) was 99.90% Area %. For the same molecule, the Area % ([1]; 40° C./75% relative humidity (closed), 13.5 week) was 99.62% Area %, the Area % [1, 8] was 99.90% Area % and the Area % ([1]; 40° C./75% relative humidity (open), 8-week) was 99.90% Area %. It also gave an Area % ([1]; 40° C./75% relative humidity (open), 13.5 week) of 99.63% Area %, an Area % ([1]; 50° C., 4-week) of 99.90% Area % and an Area % ([1]; 50° C., 8-week) of 99.04% Area %. For the same molecule, the Area % ([1]; 50° C., 13.5 week) was 99.79% Area %, the Area % [1, 9] was 99.1% Area % and the Area % ([1]; RT/RL (room temperature, room light), 4-week) was 99.90% Area %. The Area % ([1]; RT/RL (room temperature, room light), 8-week) was 99.90% Area %, the Area % ([1]; RT/RL (room temperature, room light), 13.5 week) was 99.78% Area % and the “evidence of form change, dehydration, or amorphous formation” value ([1]; after 8 weeks) was “no evidence”. The “changes in PXRD” value ([1]; at 4 weeks or 8 weeks in all samples) was “No changes”, the “change in TGA” value ([1]; at 8 weeks in all samples) was “no change” and the rate of dissolution ([2]; Example 16, FeSSIF) was 23 µg/mL/min. The “form change on heating” value ([3]; heated for ˜2 hours) was “no form change by XRPD”, the behaviour on heating ([3]; heating to ˜125° C.) was “liquefy” and the “form change on dehydration” value ([3]; overnight hold at 0% RH) was “converted to an unstable form”. For the same molecule, the “form change on heating” value ([3]; ˜79 to 80° C. for 1 day or ˜75° C. under nitrogen gas flow for ˜20 hours) was “partial conversion to other crystalline forms”.
For C[C@@H](C(=O)Nc1ccc(Cl)cc1)[C@H]1CC[C@@H](c2ccnc3ccc(F)cc32)CC1 [Compound 1 Free Base Amorphous, (R)-N-(4-chlorophenyl)-2-((1S,4S)-4-(6-fluoroquinolin-4-yl)cyclohexyl)propanamide], the “form change on heating” value ([3]; heated between 67° C. and 150° C.) was “No crystallization was observed”.
Molecule C[C@@H](C(=O)Nc1ccc(Cl)cc1)[C@H]1CC[C@@H](c2ccnc3ccc(F)cc32)CC1 [Compound 1, (R)-N-(4-chlorophenyl)-2-((1S,4S)-4-(6-fluoroquinolin-4-yl)cyclohexyl)propanamide] has a solubility at 24 h [4] of 1 to 2 µg/mL.
In the case of CS(=O)(=O)O.C[C@@H](C(=O)Nc1ccc(Cl)cc1)[C@H]1CC[C@@H](c2ccnc3ccc(F)cc32)CC1.O [Compound 1 MSA salt monohydrate Form 2, (R)-N-(4-chlorophenyl)-2-((1S,4S)-4-(6-fluoroquinolin-4-yl)cyclohexyl)propanamide methanesulfonic acid salt monohydrate], the “dissolution rate compared with Compound 1 MSA Salt Form 1” value ([2]; Example 15, FaSSIF, statistically significant difference) is reported as “slightly faster”, the “AUC (Mean)” value ([2]; FaSSIF (pH 6.5)) is reported as 14315.281 µg·min/mL and the “Dissolution Rate (Mean)” value ([2]; FaSSIF (pH 6.5)) is reported as 4.449 µg/mL/min. For the same molecule, the “AUC (Mean)” value ([2]; FeSSIF (pH 5)) was 50014.687 µg·min/mL, the “Dissolution Rate (Mean)” value ([2]; FeSSIF (pH 5)) was 47.996 µg/mL/min and the “Peak Solubility (Mean)” value ([2]; pH 5) was 287.395 µg/mL. The “Peak Solubility (Mean)” value ([2]; pH 6.5) was 91.325 µg/mL and the form change ([3]; stressing at 75% relative humidity at 40 C for 6 days) was “converts to Compound 1 MSA Salt Form 1 and Compound 1 MSA Salt monohydrate form 2”.
In the case of C[C@@H](C(=O)Nc1ccc(Cl)cc1)[C@H]1CC[C@@H](c2ccnc3ccc(F)cc32)CC1 [Compound 1 free base Form 4, (R)-N-(4-chlorophenyl)-2-((1S,4S)-4-(6-fluoroquinolin-4-yl)cyclohexyl)propanamide], the form change ([3]; melt/quench experiment, XRPD showed no evidence of crystalline material) is reported as “resulted in a glass with a few fine, birefringent acicular particles”, the Area % ([5]; 25° C./60% relative humidity, 2-week) is reported as 99.78% Area % and the Area % [5, 6] is reported as 99.77% Area %. It also gave an Area % ([5]; 40° C./75% relative humidity (closed), 2-week) of 99.78% Area %, an Area % [5, 7] of 99.71 Area % and an Area % ([5]; 40° C./75% relative humidity (open), 2-week) of 99.79% Area %. For the same molecule, the Area % [5, 8] was 98.46% Area %, the Area % ([5]; 50° C., 2-week) was 99.68% Area % and the Area % ([5]; 50° C., 4-week) was 99.74% Area %. It also gave an Area % ([5]; High intensity light (HIL), 2-week) of 99.77% Area %, an Area % [5, 9] of 99.58% Area % and an Area % ([5]; RT/RL (room temperature/room light), 2-week) of 99.75% Area %. For the same molecule, the Area % ([5]; RT/RL (room temperature/room light), 4-week) was 99.70% Area %, the time chemically stable [5, 10] was “at least 4 weeks” and the “time for which no changes were observed” value [5, 10] was “at least 2 weeks”.
For CS(=O)(=O)O.C[C@@H](C(=O)Nc1ccc(Cl)cc1)[C@H]1CC[C@@H](c2ccnc3ccc(F)cc32)CC1 [Amorphous Compound 1 MSA, (R)-N-(4-chlorophenyl)-2-((1S,4S)-4-(6-fluoroquinolin-4-yl)cyclohexyl)propanamide methanesulfonate], the form change ([3]; heat stressing at 60° C. (Example 8A)) was “recrystallized to Compound 1 MSA Salt Form 1” and the form change ([3]; heat stressing at 60° C. after 9 days) was “converted to Compound 1 MSA Salt Form 1”.
